Experimental findings from PMC11364019, “Capturing the blue-light activated state of the Phot-LOV1 domain from Chlamydomonas reinhardtii using time-resolved serial synchrotron crystallography” (IUCrJ, 2024) are described below.

Molecules are shown by their SMILES.

This test deals with T1, CrPhotLOV1 (Chlamydomonas reinhardtii, UniProt Q8LPD9).
T1 construct: gene PHOT; LOV1 domain, residues 16-133; N-terminal His-tag (pET16b) removed by limited trypsin proteolysis; expressed in E. coli BL21 DE3
T1 sequence (Q8LPD9 16-133): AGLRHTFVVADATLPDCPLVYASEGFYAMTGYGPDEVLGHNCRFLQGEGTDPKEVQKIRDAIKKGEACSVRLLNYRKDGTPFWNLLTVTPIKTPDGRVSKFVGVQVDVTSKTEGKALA
Put plainly: X-ray crystallography (cryo, serial and time-resolved serial synchrotron); FTIR difference spectroscopy on crystals. It is filed as binding. Conditions: dark state: non-covalent; after blue light: covalent thioether adduct of Cys57 S-gamma to FMN C4a; crystals at pH 6.5; 100 K and room temperature.

As for `Cc1cc2nc3c(=O)[nH]c(=O)nc-3n(C[C@H](O)[C@H](O)[C@H](O)COP(=O)(O)O)c2cc1C` [FMN, flavin mononucleotide], the “X-ray crystallography (cryo, serial and time-resolved serial synchrotron); FTIR” value is listed as “light-induced formation of the thioether covalent adduct”.
